Patent publication US9434687B2, “Detection of synthetic cannabinoids” (priority 2011, dated 2016)
Read-outs that look alike come from different tables or passages of the source.

How the values were obtained:
Type in all cases: binding, sheep
[1] = tested on: IgG fraction of antiserum raised to Immunogen I; details: Antibody to Immunogen I; cross-reactants at 100 ng/ml; 1000 ng/ml; standard JWH-018
Method in brief: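 Plates were coated with the IgG fraction of sheep antiserum raised to Immunogen I and incubated with standards (JWH-018, 0-40 ng/ml) plus hapten-HRP conjugate for 1 h at 25° C. Detection used TMB, read at 450 nm. IC50 was taken from a 4-parameter fit as the concentration giving half the zero-standard OD.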

[2] = tested on: IgG fraction of antiserum raised to Immunogen VII
[3] = tested on: IgG fraction of antiserum raised to Immunogen IV; details: Antibody to Immunogen IV; cross-reactants at 100 ng/ml; 1000 ng/ml; standard JWH-018
[4] = tested on: IgG fraction of antiserum raised to Immunogen VIII; details: Antibody to Immunogen VIII; cross-reactants at 100 ng/ml; 1000 ng/ml; standard JWH-018
[5] = tested on: IgG fraction of antiserum raised to Immunogen II; test: Competitive ELISA, antibody RS1833B12 to Immunogen II, tracer ESC4555 (Example 36); details: Antibody to Immunogen II; cross-reactants at 100 ng/ml; 1000 ng/ml; standard JWH-018
Procedure: An aqueous solution of each immunogen was formulated with Freund's Complete Adjuvant (FCA) to form an emulsion consisting of 2 mg/ml*immunogen in 50% (v/v) FCA. Three sheep were immunised with this emulsion (1° immunisation), 0.25 ml being intramuscularly injected at each of four sites in the flank of each animal. Subsequent immunizations (boosts) contained 1 mg/ml*immunogen. All boosts were emulsified in 50% (v/v) Freund's Incomplete Adjuvant (FIA) and were administered in the same manner as the 1° immunisation, at monthly intervals. Blood sampling took place 7 to 14 days after each boost. *The general procedure for immunogen administration is outlined above, however, it was necessary to deviate from this protocol in some cases, due to reduced immunogen concentrations (Immunogens II, IV, VII and VIII) and/or amount available (Immunogen VIII). Any deviations from the protocol described are outlined in Table 5 below and highlighted in bold.
The appropriate antibody coating dilution was determined using standard ELISA checkerboard techniques. The plate was incubated overnight at 4° C., washed 4 times over 10 minutes with Tris buffered saline containing Tween 20 (TBST) and tapped dry. […] 75 μl of conjugate (appropriate hapten-HRP) diluted in Tris buffer (pH 7.2) containing EDTA, D-mannitol, sucrose, thimerosal and BSA, was added to each of the wells. The appropriate dilution of conjugate was also determined using standard ELISA checkerboard techniques. The plate was incubated at 25° C. for 1 hour. Excess unbound conjugate was removed by washing 6 times over a 10 minute period with TBST. 125 μl of tetramethylbenzidine (TMB) substrate solution was added to each well of the plate that was then incubated for 20 minutes in the dark at room temperature. The reaction was terminated by addition of 125 μl 0.2M H2SO4 to each well. The absorbance was then measured at 450 nm using a microtiter plate reader. The data are inputted to a computer program called ‘KC Junior’. It is a 4 parameter fit curve and allow the calculation of concentrations between the standard runs.
In a similar manner to that described above, the wells of a 96-well microtiter plate were coated with the IgG fraction of the antiserum raised to Immunogens I or II.
The data set out in Tables 7-10 are generated using antibodies raised against the indicated Immunogens in a competitive binding assay with the indicated tracers, using the indicated standards
Using the calibration curves generated and employing a single level of cross reactants, these were used to determine the cross-reactivity of each immunoassay with these substances. These are the standards used for the IC50 and cross-reactivity data generation: […]

[6] = Antibody to Immunogen VII, cross-reactants at 100 ng/ml, 1000 ng/ml, standard JWH-015

Row | Compound | % B/B0 [1] | % B/B0 [2, 6] | % B/B0 [3] | % B/B0 [4] | % B/B0 [5] | % B/B0 ([2]; JWH-015 1.25 ng/ml) | % B/B0 ([2]; JWH-015 2.5 ng/ml) | % B/B0 ([2]; JWH-015 5 ng/ml) | % B/B0 ([2]; JWH-015 10 ng/ml) | % B/B0 ([2]; JWH-015 20 ng/ml) | % B/B0 ([2]; JWH-015 40 ng/ml) | % B/B0 ([2]; JWH-015 80 ng/ml) | IC50 ([2]; Table 9 standard curve, standard concentration which produces 50% B/B0)
1 | CS(=O)(=O)O.Cc1c(C(=O)c2cccc3ccccc23)c2cccc3c2n1[C@H](CN1CCOCC1)CO3 [(+)WIN 55212-2] | 17.00% | 24.08% | 92.76% | 107.12% | 83.87% |  |  |  |  |  |  |  | 
2 | CC(F)CCCn1cc(C(=O)c2cccc3ccccc23)c2ccccc21 (single isomer, unassigned) [AM-2201 N-(4-fluoropentyl) isomer] | 3.45% | 52.70% | 5.72% | 15.00% | 14.60% |  |  |  |  |  |  |  | 
3 | CC(C)(C)Cn1cc(C(=O)c2cccc3ccccc23)c2ccccc21 [JWH-018 N-(2,2-dimethylpropyl) isomer] | 3.89% | 52.46% | 80.42% | 95.09% | 60.15% |  |  |  |  |  |  |  | 
4 | CCCCCn1cc(C(=O)c2cccc3ccccc23)c2cccc(O)c21 [7-OH JWH-018, JWH-018 7-hydroxyindole metabolite] | 6.72% | 68.53% | 93.31% | 94.46% | 34.79% |  |  |  |  |  |  |  | 
5 | CC(C)CCn1cc(C(=O)c2cccc3ccccc23)c2ccccc21 [JWH 018 N-(3-methylbutyl) isomer] | 3.16% | 48.81% | 12.75% | 53.29% | 30.38% |  |  |  |  |  |  |  | 
6 | CCCCn1c(C)c(C(=O)c2cccc3ccccc23)c2ccccc21 [JWH-016] | 20.71% | 19.31% | 91.14% | 75.24% | 68.73% |  |  |  |  |  |  |  | 
7 | O=C(c1ccc(Cl)c2ccccc12)c1cn(CCCCCO)c2ccccc12 [JWH-398 N-(5-hydroxypentyl) metabolite] | 48.07% | 82.97% | 22.01% | 51.33% | 67.49% |  |  |  |  |  |  |  | 
8 | CCC(C)Cn1cc(C(=O)c2cccc3ccccc23)c2ccccc21 (single isomer, unassigned) [JWH-018 N-(2-methylbutyl) isomer] | 3.61% | 58.84% | 29.88% | 85.16% | 28.60% |  |  |  |  |  |  |  | 
9 | CC(O)CCCn1cc(C(=O)c2cccc3ccccc23)c2ccccc21 (racemic) [(±)-JWH 018 N-(4-hydroxypentyl) metabolite] | 4.23% | 57.37% | 52.29% | 21.94% | 53.99% |  |  |  |  |  |  |  | 
10 | CCCCCn1cc(C(=O)c2cccc3ccc(C)cc23)c2ccccc21 [JWH 122 7-methylnaphthyl isomer] | 36.46% | 92.44% | 13.48% | 38.48% | 38.28% |  |  |  |  |  |  |  | 
11 | O=C(c1cccc(I)c1)c1cn(CCCCCF)c2ccccc12 [AM-694 3-iodo isomer] | 31.37% | 89.49% | 37.20% | 12.71% | 48.58% |  |  |  |  |  |  |  | 
12 | CCCCCn1c(C)c(C(=O)c2cccc3ccccc23)c2ccccc21 [JWH-007] | 32.96% | 27.77% | 60.63% | 61.76% | 66.06% |  |  |  |  |  |  |  | 
13 | O=C(c1cccc2ccccc12)c1cn(CCN2CCOCC2)c2cccc(O)c12 [JWH-200 4-hydroxyindole metabolite] | 44.97% | 91.15% | 87.88% | 91.82% | 78.17% |  |  |  |  |  |  |  | 
14 | CCCCn1cc(C(=O)c2c(C)ccc3ccccc23)c2ccccc21 [JWH 073 2-methylnaphthyl analog] | 21.84% | 76.74% | 34.47% | 78.79% | 43.34% |  |  |  |  |  |  |  | 
15 | CCCCCn1cc(C(=O)c2cccc3cc(C)ccc23)c2ccccc21 [JWH 122 6-methylnaphthyl isomer] | 12.55% | 86.66% | 8.12% | 20.46% | 39.17% |  |  |  |  |  |  |  | 
16 | CCCCn1cc(C(=O)c2cccc3ccccc23)c2c(O)cccc21 [4-OH JWH-073, JWH-073 4-hydroxyindole metabolite] | 39.50% | 82.82% | 28.69% | 26.23% | 40.14% |  |  |  |  |  |  |  | 
17 | CN1CCCCC1Cn1cc(C(=O)c2ccccc2I)c2ccccc21 (centres unmarked) [AM-2233] | 16.97% | 72.46% | 92.10% | 91.25% | 86.43% |  |  |  |  |  |  |  | 
18 | CCCn1c(C)c(C(=O)c2cccc3ccccc23)c2ccccc21 [JWH-015] | 14.67% | 17.84% | 93.20% | 92.27% | 65.67% | 75% | 62% | 54% | 43% | 34% | 26% | 20% | 5.910 ng/mL
19 | CCCCCCCn1cc(C(=O)c2cccc3ccccc23)c2ccccc21 [JWH-020] | 16.03% | 81.30% | 73.73% | 100.73% | 35.75% |  |  |  |  |  |  |  | 
20 | CCCCCn1cc(C(=O)c2c(C)ccc3ccccc23)c2ccccc21 [JWH 122 2-methylnaphthyl isomer] | 33.35% | 85.37% | 26.13% | 61.74% | 27.14% |  |  |  |  |  |  |  | 
21 | CN1CCCCC1Cn1cc(C(=O)c2cccc3ccccc23)c2ccccc21 (centres unmarked) [AM-1220] | 4.45% | 49.71% | 86.93% | 106.65% | 77.46% |  |  |  |  |  |  |  | 
